Experimental data as given in patent publication US9302003B2, “Compositions comprising a radiosensitizer and an anti-cancer agent and methods of uses thereof” (priority 2009, dated 2016).

Tested on: F98 glioma
Experiment: Surviving assay in Fischer rats implanted with F98 glioma, intra carotid drug delivery with or without Gamma Knife irradiation
Type: in vivo
Conditions: F98 glioma-bearing Fischer rats, 1 ml/rat intra-carotid 10 days after implantation; LipoGold with 15 Gy Gamma Knife 8 h later; FIG. 6

SMILES	life span / surviving time
N.N.[Cl][Pt][Cl] [cisplatin, cis-diammineplatinum(II) dichloride]	died before sham animals
O=C1[O][Pt]2([NH][C@@H]3CCCC[C@H]3[NH]2)[O]C1=O [oxaliplatin]	short life span, similar to sham animals
